The test system of this experiment is 8XTBD luciferase reporter (YAP reporter) in HEK293T cells. Briefly: YAP Reporter Assay. Format: cell-based. Conditions: Homo sapiens, HEK-293T; HEK293T cells stably transfected with 8XTBD luciferase reporter and pRLTK; 24-hr incubation; top concentration 3 μM; read-out: Firefly Luciferase IC50. The method in brief: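 HEK293T cells stably carrying 8XTBD firefly luciferase and TK-renilla (3×10^3 cells/well) dosed 3-4 h after plating with compounds from 3 μM final, 1:3 dilution, 10 points, quadruplicates. After 24 h at 37° C, Dual-Glo readings gave IC50 and maximum inhibition reported separately for firefly and renilla.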
Regarding `O=C(NCc1ccnc(Cl)n1)c1ccc2c(-c3ccc(C(F)(F)F)cc3)cccc2c1` [Compound 180, N-((2-chloropyrimidin-4-yl)methyl)-5-(4-(trifluoromethyl)phenyl)-2-naphthamide], the IC50 was in the range of 100 to 1000 nM. The value for `CC(C)(CO)NC(=O)c1ccc2c(-c3ccc(C(F)(F)F)cc3)cccc2c1` [Compound 263, N-(1-hydroxy-2-methylpropan-2-yl)-5-(4-(trifluoromethyl)phenyl)-2-naphthamide] was 100 to 1000 nM. The value for `COC[C@@H](C)NC(=O)c1cnc2c(-c3ccc(C(F)(F)F)cc3)cc(OC)cc2c1` [Compound 107, 6-methoxy-N-[(1R)-2-methoxy-1-methyl-ethyl]-8-[4-(trifluoromethyl)phenyl]quinoline-3-carboxamide] was less than 100 nM; that for `CNS(=O)(=O)c1ccc2c(-c3ccc(C(F)(F)F)cc3)cccc2c1` [Compound 3, N-methyl-5-(4-(trifluoromethyl)phenyl)naphthalene-2-sulfonamide] was less than 100 nM; that for `COCCNC(=O)c1ccc2c(-c3ccc(C(F)(F)F)cc3)cccc2c1` [Compound 58, N-(2-methoxyethyl)-5-(4-(trifluoromethyl)phenyl)-2-naphthamide] was less than 100 nM. The value for `C[C@H](CN1CCCC1)NC(=O)c1ccc2c(-c3ccc(C(F)(F)F)cc3)cccc2c1` [Compound 67, (R)—N-(1-(pyrrolidin-1-yl)propan-2-yl)-5-(4-(trifluoromethyl)phenyl)-2-naphthamide] was 100 to 1000 nM; that for `C[C@H](NC(=O)c1ccc2c(-c3ccc(C(F)(F)F)cc3)cccc2c1)c1cc(N)ccn1` [Compound 214, (S)—N-(1-(4-aminopyridin-2-yl)ethyl)-5-(4-(trifluoromethyl)phenyl)-2-naphthamide] was 1000 to 3000 nM; that for `COc1cc(-c2ccc(C(F)(F)F)cc2)c2ccc(C(=O)N[C@@H](C)c3ccccn3)cc2c1` [Compound 292, (S)-7-Methoxy-N-(1-(pyridin-2-yl)ethyl)-5-(4-(trifluoromethyl)phenyl)-2-naphthamide] was less than 100 nM.

Consider `O=C(NCc1ccncc1)c1ccc2c(-c3ccc(C(F)(F)F)cc3)cccc2c1` [Compound 229, N-(pyridin-4-ylmethyl)-5-(4-(trifluoromethyl)phenyl)-2-naphthamide], for which the IC50 was less than 100 nM. Then `COc1cc(-c2ccc(C(F)(F)F)cc2)c2ccc(C(=O)NC(C)C)cc2c1` [Compound 39, N-isopropyl-7-methoxy-5-[4-(trifluoromethyl)phenyl]naphthalene-2-carboxamide], with less than 100 nM; and `COc1cc(-c2ccc(C(F)(F)F)cc2)c2ncc(C(=O)O)cc2c1` [Compound 325, 6-methoxy-8-(4-(trifluoromethyl)phenyl)quinoline-3-carboxylic acid], with less than 100 nM; and `CS(=O)(=O)NC(=O)c1cnc2c(-c3ccc(C(F)(F)F)cc3)cc(Cl)c(Cl)c2c1` [Compound 96, 5,6-dichloro-N-(methylsulfonyl)-8-(4-(trifluoromethyl)phenyl)quinoline-3-carboxamide], with 100 to 1000 nM. The value for `COC(=O)c1ccc2c(-c3ccc(C(F)(F)F)cc3)cnc(Cl)c2c1` [Compound 10, Methyl 1-chloro-4-[4-(trifluoromethyl)phenyl]isoquinoline-7-carboxylate] was 1000 to 3000 nM; that for `CC(C)NC(=O)c1cnc2c(-c3ccc(C(F)(F)F)cc3)cc(Cl)c(Cl)c2c1` [Compound 94, 5,6-Dichloro-N-isopropyl-8-(4-(trifluoromethyl)phenyl)quinoline-3-carboxamide] was less than 100 nM; that for `CC(C)NS(=O)(=O)c1ccc2c(-c3ccc(C(F)(F)F)cc3)cccc2c1` [Compound 6, N-isopropyl-5-(4-(trifluoromethyl)phenyl)naphthalene-2-sulfonamide] was 100 to 1000 nM. Then `C[C@@H](NC(=O)c1ccc2c(-c3ccc(C(F)(F)F)cc3)cccc2c1)C1CN(CCO)C1` [Compound 133, (R)—N-(1-(1-(2-hydroxyethyl)azetidin-3-yl)ethyl)-5-(4-(trifluoromethyl)phenyl)-2-naphthamide], with 100 to 1000 nM. `CC(C)NC(=O)c1ccc2c(-c3ccc(C(F)(F)F)cc3)cc(N)c(O)c2c1` [Compound 95, 7-amino-8-hydroxy-N-isopropyl-5-(4-(trifluoromethyl)phenyl)-2-naphthamide]: the IC50 was 100 to 1000 nM. Then `C[C@H](CN(C)C)NC(=O)c1ccc2c(-c3ccc(C(F)(F)F)cc3)cccc2c1` [Compound 65, (R)—N-(1-(dimethylamino)propan-2-yl)-5-(4-(trifluoromethyl)phenyl)-2-naphthamide], with 1000 to 3000 nM. Take `CCS(=O)(=O)NC(=O)c1ccc2c(-c3ccc(C(F)(F)F)cc3)cccc2c1` [Compound 78, N-(ethylsulfonyl)-5-(4-(trifluoromethyl)phenyl)-2-naphthamide]: the IC50 was 100 to 1000 nM.

Consider `C#C[C@@H](C)NC(=O)c1ccc2c(-c3ccc(C(F)(F)F)cc3)cccc2c1` [Compound 275, (R)—N-(but-3-yn-2-yl)-5-(4-(trifluoromethyl)phenyl)-2-naphthamide], for which the IC50 is less than 100 nM.

As to `O=C(O)c1ccc2c(-c3ccc(C(F)(F)F)cc3)cccc2c1` [Compound 330, 5-[4-(trifluoromethyl)phenyl]naphthalene-2-carboxylic Acid], the IC50 was less than 100 nM. With `C[C@@H](NC(=O)c1ccc2c(-c3ccc(C(F)(F)F)cc3)cccc2c1)c1nnn(C)n1` [Compound 279, (R)—N-(1-(2-methyl-2H-tetrazol-5-yl)ethyl)-5-(4-(trifluoromethyl)phenyl)-2-naphthamide], the half-maximal inhibitory concentration (IC50) was less than 100 nM. Then `CC(C)NC(=O)c1ccc2c(-c3ccc(C(F)(F)F)cc3)cc(S(C)(=O)=O)cc2c1` [Compound 46, N-isopropyl-7-methylsulfonyl-5-[4-(trifluoromethyl)phenyl]naphthalene-2-carboxamide], with less than 100 nM; and `C[C@H](NC(=O)c1ccc2c(-c3ccc(C(F)(F)F)cc3)cccc2c1)C1CCC1` [Compound 251, (S)—N-(1-cyclobutylethyl)-5-(4-(trifluoromethyl)phenyl)-2-naphthamide], with 100 to 1000 nM. For the compound `O=C(NCc1ccnc(CF)n1)c1ccc2c(-c3ccc(C(F)(F)F)cc3)cccc2c1` [Compound 170, N-((2-(fluoromethyl)pyrimidin-4-yl)methyl)-5-(4-(trifluoromethyl)phenyl)-2-naphthamide], the IC50 was less than 100 nM. Then `C[C@@H](NC(=O)c1ccc2c(-c3ccc(C(F)(F)F)cc3)cccc2c1)c1cc(N(C)C)ccn1` [Compound 223, (R)—N-(1-(4-(dimethylamino)pyridin-2-yl)ethyl)-5-(4-(trifluoromethyl)phenyl)-2-naphthamide], with 100 to 1000 nM; and `CC(C)NC(=O)c1cnc2c(-c3ccc(C(F)(F)F)cc3)cc(OC3CC3)cc2c1` [Compound 116, 6-cyclopropoxy-N-isopropyl-8-(4-(trifluoromethyl)phenyl)quinoline-3-carboxamide], with less than 100 nM. Then `CC(C)NC(=O)c1ccc2c(-c3ccc(C(F)(F)F)cc3)ccc(Br)c2c1` [Compound 8, 8-bromo-N-isopropyl-5-(4-(trifluoromethyl)phenyl)-2-naphthamide], with less than 100 nM.

These data come from patent publication US11866431B2, “Bicyclic compounds” (Vivace Therapeutics, Inc., priority 2018, dated 2024).
